# Assay results reported in EP0590721A1, “Method for expressing receptors of the human nervous system in the yeast Schizosaccharomyces pombe” (ENICHEM S.p.A., priority 1992, dated 1994).
# Biological target: chimeric protein STE2-β₂AR (Homo sapiens, UniProt P07550)
# Conditions: (125I)-CYP 20 pM, competitor 10⁻⁹ M to 10⁻³ M, 37°C one hour, TNE
smiles,measurement,value
CNC[C@H](O)c1ccc(O)c(O)c1 [epinephrine],inhibition efficiency order,alprenolol > isoproterenol > epinephrine
